This is an account of results in PubChem BioAssay (NCI).

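How tested: cells in 96-well plates exposed to compound for 48 hours at five concentrations. GI50: concentration for 50% inhibition of growth. The concentration for full growth arrest is given as TGI.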

Among the test systems are HOP-92 NSCLC; IGROV1 ovarian; MOLT-4 leukemia; M14 melanoma; SF-539 CNS; SR leukemia; HCC-2998 colon; 786-0 renal; PC-3 prostate; MDA-MB-231 breast.
Holding throughout (experiment): NCI anticancer screen, dose series, 48 h

On to `Cc1nc(C(N)=O)c(N)n1CCN1CCN(C(=O)CCCCCCCCCCNC2N=CNc3nc[nH]c32)CC1` (centres undefined), for which the TGI in the assay with HOP-92 NSCLC is above 100 µM; in the assay on IGROV1 ovarian, above 100 µM; with MOLT-4 leukemia, 47.6 µM; in the assay with M14 melanoma, 82.8 µM; in the assay with SF-539 CNS, above 100 µM; with SR leukemia it was 43.3 µM. The TGI in the assay with HCC-2998 colon and in the assay on 786-0 renal was above 100 µM in each case.

Regarding `CN1N=CSC12C(=O)N(c1ccccc1)C(=O)N2c1ccccc1` (centres undefined), the TGI with IGROV1 ovarian, with MOLT-4 leukemia, in the assay with M14 melanoma, in the assay on SF-539 CNS, in the assay with HCC-2998 colon and with 786-0 renal was above 100 µM in each case.

On to `O=C1C2C3C=C4c5ccccc5N(c5ccccc5)C4(C2C(=O)N1c1ccccc1)C1C(=O)N(c2ccccc2)C(=O)C31` (centres undefined), for which the TGI with HOP-92 NSCLC is 6.29 µM; with MOLT-4 leukemia, above 100 µM; in the assay with M14 melanoma, above 100 µM; in the assay on SR leukemia, above 100 µM; in the assay with HCC-2998 colon, above 100 µM; in the assay with 786-0 renal it was above 100 µM.

With `CN(C(=O)/C=C/c1ccccc1)C1C2CN3CCC(O2)C13` (centres undefined), the TGI in the assay with IGROV1 ovarian, with MOLT-4 leukemia, with M14 melanoma, in the assay on SF-539 CNS, in the assay with HCC-2998 colon and in the assay with 786-0 renal was above 100 µM in each case.

With `O=C1C[C@H]2CCCN2[C@@H](c2ccccc2)C1`, the TGI in the assay with HOP-92 NSCLC, in the assay with IGROV1 ovarian, with MOLT-4 leukemia, with M14 melanoma, in the assay on SF-539 CNS and in the assay with HCC-2998 colon was above 100 µM throughout. The TGI with 786-0 renal is above 100 µM.

As for `CCc1cccc(C)c1NS(=O)(=O)c1ccccc1`, the TGI with IGROV1 ovarian, in the assay with MOLT-4 leukemia, in the assay with M14 melanoma, in the assay with SF-539 CNS, in the assay with HCC-2998 colon and in the assay on 786-0 renal was above 100 µM throughout.

For the molecule `O=c1cc(-c2cccs2)[nH]c2cc3c(cc12)OCO3`, the TGI was above 100 µM in the assay on HOP-92 NSCLC; above 53.4 µM in the assay with IGROV1 ovarian; above 100 µM with MOLT-4 leukemia; above 100 µM in the assay on M14 melanoma; 12.7 µM with SF-539 CNS; above 100 µM with SR leukemia. The TGI with HCC-2998 colon was above 51.6 µM; with 786-0 renal it was above 41.3 µM.

With `O=c1ncccn1[C@@H]1O[C@H](CO)[C@H](O)C1O` (some centres undefined), the TGI with HOP-92 NSCLC, in the assay on IGROV1 ovarian, with MOLT-4 leukemia, with M14 melanoma, in the assay on SF-539 CNS and with SR leukemia was above 100 µM in each case. In addition, the TGI in the assay with HCC-2998 colon and in the assay with 786-0 renal was above 100 µM each time.

Turning to `Nc1ncnc2c1ncn2C1OC(CSCC(F)(F)F)C(O)C1O` (centres undefined), the TGI with HOP-92 NSCLC, in the assay with IGROV1 ovarian, with MOLT-4 leukemia, in the assay on M14 melanoma, in the assay with SF-539 CNS and in the assay on SR leukemia was above 100 µM each time. In addition, the TGI in the assay with HCC-2998 colon and with 786-0 renal was above 100 µM each time.

For the molecule `COc1ccc2c(c1)C(=O)/C(=C/c1cccc(OCC(=O)c3ccccc3)c1)CC2`, the TGI in the assay on HOP-92 NSCLC is 0.792 µM; in the assay with IGROV1 ovarian, above 100 µM; in the assay with MOLT-4 leukemia, 6.82 µM; with M14 melanoma, above 100 µM; in the assay on SF-539 CNS it was above 100 µM; in the assay with HCC-2998 colon, above 100 µM. Besides, the TGI in the assay on PC-3 prostate, with MDA-MB-231 breast and in the assay with 786-0 renal was above 100 µM in each case. The GI50 in the assay on IGROV1 ovarian is 4.19 µM; in the assay on MOLT-4 leukemia, 3.05 µM; in the assay with M14 melanoma, 16.7 µM; with SF-539 CNS it was 64.7 µM; in the assay with HCC-2998 colon it was 25.8 µM; with PC-3 prostate, 4.92 µM. Also, the GI50 with MDA-MB-231 breast was 69.9 µM; in the assay with 786-0 renal, 54.4 µM.

On to `CCSCCCSCCSCC`, for which the TGI in the assay on IGROV1 ovarian was above 100 µM; with MOLT-4 leukemia, 84.5 µM; in the assay with M14 melanoma, above 100 µM; in the assay with SF-539 CNS, above 100 µM; in the assay with HCC-2998 colon, above 100 µM; in the assay on PC-3 prostate it was above 100 µM. In addition, the TGI in the assay with MDA-MB-231 breast and in the assay on 786-0 renal was above 100 µM in each case.

With `c1ccc(C2ONC3=NCCN32)cc1` (centres undefined), the GI50 in the assay on IGROV1 ovarian is 31.2 µM; in the assay with MOLT-4 leukemia, 12.2 µM; in the assay on M14 melanoma, above 100 µM; in the assay with SF-539 CNS it was 46.6 µM; in the assay on HCC-2998 colon, 58.1 µM; in the assay on PC-3 prostate, 18.8 µM. Also, the GI50 with MDA-MB-231 breast was 37.2 µM; in the assay with 786-0 renal it was 13.3 µM. Besides, the TGI in the assay on IGROV1 ovarian is above 100 µM; in the assay with MOLT-4 leukemia, 34.6 µM; in the assay with M14 melanoma, above 100 µM; with SF-539 CNS, above 100 µM; in the assay with HCC-2998 colon, above 100 µM; with PC-3 prostate, 78.2 µM. In addition, the values for the TGI in the assay with MDA-MB-231 breast and in the assay on 786-0 renal were above 100 µM and 68 µM, respectively.

For the molecule `Cc1cc2c(C)nn(Cc3ccccc3)c2c(C(=O)O)c1C`, the TGI in the assay on HOP-92 NSCLC, with IGROV1 ovarian, in the assay on MOLT-4 leukemia, in the assay with SF-539 CNS, with SR leukemia and in the assay with HCC-2998 colon was above 100 µM throughout. The same molecule registered a TGI in the assay on 786-0 renal above 100 µM.

As to `Oc1cc(Cc2ccccc2)c(Cc2ccccc2)cc1O`, the TGI with HOP-92 NSCLC, in the assay on IGROV1 ovarian, with MOLT-4 leukemia, with M14 melanoma, with SF-539 CNS and in the assay with HCC-2998 colon was above 10 µM each time. The TGI in the assay with PC-3 prostate, in the assay with MDA-MB-231 breast and in the assay with 786-0 renal was above 10 µM each time.

`O=C(O)CCNS(=O)(=O)c1ccc(NC(=O)c2ccccc2)cc1`: the TGI with HOP-92 NSCLC, in the assay on IGROV1 ovarian, in the assay on MOLT-4 leukemia, in the assay with M14 melanoma, in the assay on SF-539 CNS and with HCC-2998 colon was above 100 µM in each case. The molecule further came in with a TGI with 786-0 renal above 100 µM.

In the case of `Cn1ccnc1CCc1c(Cl)cccc1Cl`, the TGI with HOP-92 NSCLC, in the assay on IGROV1 ovarian, in the assay on MOLT-4 leukemia, with M14 melanoma, with SF-539 CNS and in the assay on SR leukemia was above 100 µM throughout. Besides, in the assay on 786-0 renal, the TGI is above 100 µM.
